“And” between values parts separate entries of the source, which are not always exact repeats. Equal values may be shown once.
Tests used:
[1] = tested on: Sm3e/C825 bsAb; test: Binding affinity of Sm3e/C825 bsAb; details: unlabeled (no metal) DOTA
[2] = tested on: LS174T and C6 tumor-bearing mice; test: Pretargeted organ/tissue biodistribution in tumor-bearing mice; format: in vivo
[3] = biological target: Sm3e/C825 bsAb; details: read-out: binding affinity (KD) to bsAb; cited from earlier work
[4] = pretargeted protocol, 24 h p.i., n=3
[5] = pretargeted protocol, 4 h p.i., n=3
[6] = pretargeted protocol, 48 h p.i., n=3

SMILES: O=C(O)CN1CCN(CC(=O)O)CCN(CC(=O)O)CCN(CC(=O)O)CC1 [DOTA, 1,4,7,10-Tetraazacyclododecane-1,4,7,10-tetraacetic acid]
- binding to pretargeted anti-DOTA binding sites [1]: no observable binding

SMILES: O=C([O-])CN1CCN(CC(=O)[O-])CCN(CC(=O)[O-])CCN(CC(=O)[O-])CC1.[111In+3] [^111In-DOTA]
- Biodistribution, LS174T Tumor (antigen-positive) [2, 4]: 0.5 ± 0.1 %ID/g
- Tumor/organ ratio, LS174T tumor-to-Kidneys (both) [2, 4]: 1.2 ± 0.4
- Kd [3]: 20 nM

SMILES: O=C([O-])CN1CCN(CC(=O)[O-])CCN(CC(=O)[O-])CCN(CC(=O)[O-])CC1.[177Lu+3].[H+] [^177Lu-DOTA]
- antigen-positive tumor uptake, pretargeted versus ^177Lu-DOTA alone ([2]; 4 h post-injection): approximately 90 fold
- Biodistribution, Adipose [2, 5]: 2.78 ± 1.08 %ID/g
- Biodistribution, Blood [2, 5]: 0.42 ± 0.02 %ID/g
- Biodistribution, Bone (femur) [2, 5]: 1.49 ± 0.38 %ID/g
- Biodistribution, C6 Tumor (antigen-negative) [2, 5]: 9.82 ± 0.35 (0.26 ± 0.08 g) %ID/g
- Biodistribution, Heart [2, 5]: 0.25 ± 0.16 %ID/g
- Biodistribution, Kidneys (both) [2, 5]: 0.92 ± 0.05 %ID/g
- Biodistribution, LS174T Tumor (antigen-positive) [2, 5]: 7.44 ± 0.41 (0.09 ± 0.03 g) %ID/g
- Biodistribution, Lg Intestine [2, 5]: 0.13 ± 0.09 %ID/g
- Biodistribution, Liver [2, 5]: 0.59 ± 0.21 %ID/g
- Biodistribution, Lung [2, 5]: 1.25 ± 0.43 %ID/g
- Biodistribution, Muscle [2, 5]: 1.56 ± 0.56 %ID/g
- Biodistribution, Skin [2, 5]: 4.68 ± 1.06 %ID/g
- Biodistribution, Sm Intestine [2, 5]: 0.28 ± 0.02 %ID/g
- Biodistribution, Spleen [2, 5]: 0.39 ± 0.09 %ID/g
- Biodistribution, Stomach (with contents) [2, 5]: 0.21 ± 0.12 %ID/g
- Tumor/organ ratio, Adipose [2, 5]: 3.2 ± 1.5
- Tumor/organ ratio, Bone (femur) [2, 5]: 5.3 ± 1.6
- Tumor/organ ratio, C6 Tumor [2, 5]: 0.7 ± 0.1
- Tumor/organ ratio, Heart [2, 5]: 49 ± 36
- Tumor/organ ratio, LS174T Tumor [2, 5]: 1
- Tumor/organ ratio, LS174T tumor-to-Blood [2, 5]: 18 ± 2
- Tumor/organ ratio, Lg Intestine [2, 5]: 80 ± 36
- Tumor/organ ratio, Liver [2, 5]: 13.9 ± 3.7
- Tumor/organ ratio, Lung [2, 5]: 7.2 ± 3.7
- Tumor/organ ratio, Muscle [2, 5]: 5.3 ± 1.6
- Tumor/organ ratio, Skin [2, 5]: 1.7 ± 0.4
- Tumor/organ ratio, Sm Intestine [2, 5]: 27 ± 4
- Tumor/organ ratio, Spleen [2, 5]: 20 ± 5
- Tumor/organ ratio, Stomach (with contents) [2, 5]: 48 ± 22
- Biodistribution, Adipose [2, 4]: 0.67 ± 0.12 %ID/g
- Biodistribution, Blood [2, 4]: 0.04 ± 0.01 %ID/g
- Biodistribution, Bone (femur) [2, 4]: 0.43 ± 0.12 %ID/g
- Biodistribution, C6 Tumor (antigen-negative) [2, 4]: 4.23 ± 0.54 (0.26 ± 0.07 g) %ID/g
- Biodistribution, Heart [2, 4]: 0.05 ± 0.01 %ID/g
- Biodistribution, Kidneys (both) [2, 4]: 0.88 ± 0.16 %ID/g
- Biodistribution, LS174T Tumor (antigen-positive) [2, 4]: 14.3 ± 1.8 %ID/g and 14.34 ± 1.83 (0.21 ± 0.10 g) %ID/g
- Biodistribution, Lg Intestine [2, 4]: 0.52 ± 0.56 %ID/g
- Biodistribution, Liver [2, 4]: 0.51 ± 0.23 %ID/g
- Biodistribution, Lung [2, 4]: 0.37 ± 0.07 %ID/g
- Biodistribution, Muscle [2, 4]: 0.41 ± 0.24 %ID/g
- Biodistribution, Skin [2, 4]: 1.05 ± 0.25 %ID/g
- Biodistribution, Sm Intestine [2, 4]: 0.08 ± 0.04 %ID/g
- Biodistribution, Spleen [2, 4]: 0.29 ± 0.09 %ID/g
- Biodistribution, Stomach (with contents) [2, 4]: 0.09 ± 0.07 %ID/g
- Tumor/organ ratio, Adipose [2, 4]: 23 ± 6
- Tumor/organ ratio, Bone (femur) [2, 4]: 38 ± 16
- Tumor/organ ratio, C6 Tumor [2, 4]: 3.4 ± 0.3
- Tumor/organ ratio, Heart [2, 4]: 323 ± 108
- Tumor/organ ratio, LS174T Tumor [2, 4]: 1
- Tumor/organ ratio, LS174T tumor-to-Blood [2, 4]: 380 ± 90
- Tumor/organ ratio, Lg Intestine [2, 4]: 83 ± 53
- Tumor/organ ratio, Liver [2, 4]: 33 ± 11
- Tumor/organ ratio, Lung [2, 4]: 39 ± 3
- Tumor/organ ratio, Muscle [2, 4]: 57 ± 41
- Tumor/organ ratio, Skin [2, 4]: 14 ± 2
- Tumor/organ ratio, Sm Intestine [2, 4]: 217 ± 76
- Tumor/organ ratio, Spleen [2, 4]: 52 ± 12
- Tumor/organ ratio, Stomach (with contents) [2, 4]: 252 ± 119
- Biodistribution, Adipose [2, 6]: 0.60 ± 0.29 %ID/g
- Biodistribution, Bone (femur) [2, 6]: 0.24 ± 0.10 %ID/g
- Biodistribution, C6 Tumor (antigen-negative) [2, 6]: 2.89 ± 2.28 (0.28 ± 0.13 g) %ID/g
- Biodistribution, Heart [2, 6]: 0.07 ± 0.03 %ID/g
- Biodistribution, Kidneys (both) [2, 6]: 0.62 ± 0.19 %ID/g
- Biodistribution, LS174T Tumor (antigen-positive) [2, 6]: 13.44 ± 3.25 (0.49 ± 0.09 g) %ID/g
- Biodistribution, Lg Intestine [2, 6]: 0.11 ± 0.04 %ID/g
- Biodistribution, Liver [2, 6]: 0.56 ± 0.35 %ID/g
- Biodistribution, Lung [2, 6]: 0.21 ± 0.04 %ID/g
- Biodistribution, Muscle [2, 6]: 0.15 ± 0.07 %ID/g
- Biodistribution, Skin [2, 6]: 0.71 ± 0.20 %ID/g
- Biodistribution, Sm Intestine [2, 6]: 0.14 ± 0.11 %ID/g
- Biodistribution, Spleen [2, 6]: 0.64 ± 0.60 %ID/g
- Biodistribution, Stomach (with contents) [2, 6]: 0.22 ± 0.24 %ID/g
- Tumor/organ ratio, Adipose [2, 6]: 28 ± 13
- Tumor/organ ratio, Bone (femur) [2, 6]: 60 ± 19
- Tumor/organ ratio, C6 Tumor [2, 6]: 10 ± 9
- Tumor/organ ratio, Heart [2, 6]: 244 ± 85
- Tumor/organ ratio, LS174T Tumor [2, 6]: 1
- Tumor/organ ratio, Lg Intestine [2, 6]: 128 ± 16
- Tumor/organ ratio, Liver [2, 6]: 32 ± 13
- Tumor/organ ratio, Lung [2, 6]: 63 ± 6
- Tumor/organ ratio, Muscle [2, 6]: 105 ± 40
- Tumor/organ ratio, Skin [2, 6]: 20 ± 8
- Tumor/organ ratio, Sm Intestine [2, 6]: 183 ± 129
- Tumor/organ ratio, Spleen [2, 6]: 40 ± 21
- Tumor/organ ratio, Stomach (with contents) [2, 6]: 276 ± 236
- Kd [3]: 0.4 nM

From publication PMC4030749 (Molecular cancer therapeutics, 2012)
